A short description of data set [1]: Cytotoxicity against monkey LLC-MK2 cells assessed as reduction in cell viability incubated for 24 hrs by MTT assay. The data set is classed as toxicity, cell-based. The following applies: Macaca mulatta (monkey). (Tetrazolium dyes change colour on reduction, which living cells bring about.)
Data set [2] concerns Trypanosoma cruzi. The experiment in a line: Antitrypanosomal activity against Trypanosoma cruzi Y trypomastigotes infected in monkey LLC-MK2 cells assessed as reduction in cell death inducing capability incubated for 24 hrs by hemocytometer chamber based analysis. In kind it is functional, organism-based. The following applies: LLC-MK2, 24 h.
The nature of data set [3]: Selectivity index, ratio of EC50 for Cytotoxicity against monkey LLC-MK2 cells to EC50 for antitrypanosomal activity against Trypanosoma cruzi Y trypomastigotes infected in monkey LLC-MK2 cells. The data set is classed as toxicity, cell-based. As to conditions: read-out: Ratio EC50.
Data set [4] deals with Trypanosoma cruzi. The experiment in a line: Antitrypanosomal activity against Trypanosoma cruzi Y epimastigotes assessed as parasite growth inhibition measured after 24 hrs by hemocytometer chamber based analysis. In kind it is functional, organism-based.
Data set [5] concerns Trypanosoma cruzi. The experiment in a line: Antitrypanosomal activity against Trypanosoma cruzi Y epimastigotes assessed as parasite growth inhibition measured after 48 hrs by hemocytometer chamber based analysis. In kind it is functional, organism-based.
The test system of data set [6] is Trypanosoma cruzi. The experiment in a line: Antitrypanosomal activity against Trypanosoma cruzi Y epimastigotes assessed as parasite growth inhibition measured after 72 hrs by hemocytometer chamber based analysis. In kind it is functional, organism-based.
Data set [7] has as its system Trypanosoma cruzi. The experiment in a line: Induction of cell death in Trypanosoma cruzi Y epimastigotes assessed as live cells at 125 uM incubated for 24 hrs by Annexin V/7-AAD staining based flow cytometric analysis (reference value: 98.6 %). The data set is classed as functional. (Flow cytometry measures light scatter and fluorescence of single cells or particles in a stream.)

Data set [8] has as its system Trypanosoma cruzi. The experiment in a line: Induction of cell death in Trypanosoma cruzi Y epimastigotes assessed as early apoptotic cells at 125 uM incubated for 24 hrs by Annexin V/7-AAD staining based flow cytometric analysis (reference value: 0.11 %). In kind it is functional.
Data set [9] concerns Trypanosoma cruzi. The experiment in a line: Induction of cell death in Trypanosoma cruzi Y epimastigotes assessed as late apoptotic cells at 125 uM incubated for 24 hrs by Annexin V/7-AAD staining based flow cytometric analysis (reference value: 0.12 %). The data set is classed as functional.
Data set [10] deals with Trypanosoma cruzi. The experiment in a line: Induction of cell death in Trypanosoma cruzi Y epimastigotes assessed as dead cells at 125 uM incubated for 24 hrs by Annexin V/7-AAD staining based flow cytometric analysis (reference value: 1.13 %). In kind it is functional.
Data set [11] relates to Trypanosoma cruzi. The experiment in a line: Induction of mitochondrial membrane potential loss in Trypanosoma cruzi Y epimastigotes at 125 uM incubated for 24 hrs by Rhodamine 123 staining based flow cytometric analysis relative to control. The data set is classed as functional.
In data set [12] the test system is Trypanosoma cruzi. The experiment in a line: Antitrypanosomal activity against Trypanosoma cruzi Y amastigotes infected in monkey LLC-MK2 cells assessed as reduction in reduction in amastigotes per 100 cells measured after 24 hrs by Giemsa staining based analysis. The following applies: LLC-MK2, 24 h. In kind it is functional, organism-based.
Data set [13] can be described thus: Selectivity index, ratio of EC50 for Cytotoxicity against monkey LLC-MK2 cells to EC50 for antitrypanosomal activity against Trypanosoma cruzi Y amastigotes infected in monkey LLC-MK2 cells assessed as reduction in reduction in amastigotes per 100 cells measured after 24 hrs by Giemsa staining based analysis. In kind it is toxicity, cell-based. The following applies: read-out: Ratio EC50.

Data set [14] deals with Trypanosoma cruzi. The experiment in a line: Antitrypanosomal activity against Trypanosoma cruzi Y amastigotes infected in monkey LLC-MK2 cells assessed as reduction in reduction in amastigotes per 100 cells measured after 48 hrs by Giemsa staining based analysis. In kind it is functional, organism-based. As to conditions: LLC-MK2, 48 h.
The nature of data set [15]: Cytotoxicity against monkey LLC-MK2 cells assessed as reduction in cell viability incubated for 48 hrs by MTT assay. In kind it is toxicity, cell-based. As to conditions: Macaca mulatta (monkey).
A short description of data set [16]: Selectivity index, ratio of EC50 for Cytotoxicity against monkey LLC-MK2 cells to EC50 for antitrypanosomal activity against Trypanosoma cruzi Y amastigotes infected in monkey LLC-MK2 cells assessed as reduction in reduction in amastigotes per 100 cells measured after 48 hrs by Giemsa staining based analysis. The following applies: read-out: Ratio EC50. In kind it is toxicity, cell-based.

Data set [17] relates to Trypanosoma cruzi. The experiment in a line: Induction of cell death in Trypanosoma cruzi Y epimastigotes assessed as live cells at 7.2 uM incubated for 24 hrs by Annexin V/7-AAD staining based flow cytometric analysis (reference value: 98.6 %). In kind it is functional.
Data set [18] relates to Trypanosoma cruzi. The experiment in a line: Induction of cell death in Trypanosoma cruzi Y epimastigotes assessed as early apoptotic cells at 7.2 uM incubated for 24 hrs by Annexin V/7-AAD staining based flow cytometric analysis (reference value: 0.11 %). The data set is classed as functional.
In data set [19] the test system is Trypanosoma cruzi. The experiment in a line: Induction of cell death in Trypanosoma cruzi Y epimastigotes assessed as late apoptotic cells at 7.2 uM incubated for 24 hrs by Annexin V/7-AAD staining based flow cytometric analysis (reference value: 0.12 %). The data set is classed as functional.
Data set [20] concerns Trypanosoma cruzi. The experiment in a line: Induction of cell death in Trypanosoma cruzi Y epimastigotes assessed as dead cells at 7.2 uM incubated for 24 hrs by Annexin V/7-AAD staining based flow cytometric analysis (reference value: 1.13 %). In kind it is functional.
Data set [21] concerns Trypanosoma cruzi. The experiment in a line: Induction of oxidative stress in Trypanosoma cruzi Y epimastigotes assessed as increase in ROS formation at 7.2 uM incubated for 24 hrs by DCFH-DA staining based analysis relative to control. In kind it is functional.
The subject of data set [22] is Trypanosoma cruzi. The experiment in a line: Induction of mitochondrial membrane potential loss in Trypanosoma cruzi Y epimastigotes at 7.2 uM incubated for 24 hrs by Rhodamine 123 staining based flow cytometric analysis relative to control. The data set is classed as functional.
The test system of data set [23] is Trypanosoma cruzi. The experiment in a line: Induction of membrane damage in Trypanosoma cruzi Y epimastigotes at EC50 measured after 12 hrs by SEM analysis. As to conditions: Cell membrane. In kind it is organism-based.
The subject of data set [24] is Trypanosoma cruzi. The experiment in a line: Antitrypanosomal activity against Trypanosoma cruzi Y trypomastigotes infected in monkey LLC-MK2 cells assessed as reduction in cell death inducing capability incubated for 24 hrs by Neubauer chamber based analysis. The data set is classed as functional, organism-based. As to conditions: LLC-MK2, 24 h.
In data set [25] the test system is Trypanosoma cruzi. The experiment in a line: Induction of cell death in Trypanosoma cruzi Y epimastigotes assessed as live cells at 13.5 uM incubated for 24 hrs by Annexin V/7-AAD staining based flow cytometric analysis (reference value: 98.6 %). In kind it is functional.
Data set [26] concerns Trypanosoma cruzi. The experiment in a line: Induction of cell death in Trypanosoma cruzi Y epimastigotes assessed as early apoptotic cells at 13.5 uM incubated for 24 hrs by Annexin V/7-AAD staining based flow cytometric analysis (reference value: 0.11 %). The data set is classed as functional.
In data set [27] the test system is Trypanosoma cruzi. The experiment in a line: Induction of cell death in Trypanosoma cruzi Y epimastigotes assessed as late apoptotic cells at 13.5 uM incubated for 24 hrs by Annexin V/7-AAD staining based flow cytometric analysis (reference value: 0.12 %). The data set is classed as functional.
Data set [28] has as its system Trypanosoma cruzi. The experiment in a line: Induction of cell death in Trypanosoma cruzi Y epimastigotes assessed as dead cells at 13.5 uM incubated for 24 hrs by Annexin V/7-AAD staining based flow cytometric analysis (reference value: 1.13 %). In kind it is functional.
In data set [29] the test system is Trypanosoma cruzi. The experiment in a line: Induction of oxidative stress in Trypanosoma cruzi Y epimastigotes assessed as increase in ROS formation at 13.5 uM incubated for 24 hrs by DCFH-DA staining based analysis relative to control. The data set is classed as functional.

Active and inactive are the calls of the source. The rule behind the calls is not given here.

By EC50 is commonly meant the concentration needed to bring the measured effect to its halfway point. For `O=C(Cn1ccnc1[N+](=O)[O-])NCc1ccccc1` [BENZNIDAZOLE], in [1], the EC50 at 24 h is 503 µM. Besides, the EC50 is 161 µM in data set [2], 115 µM in data set [4], 37.4 µM in [5] and 22.1 µM in [6]. The selectivity ratio in data set [3] worked out at 3.11. Besides, the Activity in data set [7] was determined as 93.22%; in [8], 0.06%; in [9] it was 1.01%; in data set [10], 5.71%; in data set [11], 70%.

In the case of H-AIPAAMGMKQNK-OH, in data set [1], the EC50 at 24 h came to 43.1 µM. For the same compound, the EC50 in data set [2] worked out at 0.59 µM; in data set [4] it was 7.2 µM; in data set [5], 9.7 µM; in [6], 8.7 µM; in [12], 1.32 µM; in [14] it was 0.37 µM. Also, the selectivity ratio in data set [3] amounted to 72.9. Moreover, the selectivity ratio at 24 h in data set [13] amounted to 32.6. Also, the EC50 at 48 h in data set [15] was found to be 35.8 µM. Also, the selectivity ratio at 48 h in data set [16] was 96.7. Moreover, the Activity in [17] is on record as 85.36%; in data set [18], 1.13%; in data set [19], 1.09%; in data set [20], 12.42%; in data set [21], 40%; in [22] it was 65%. Besides, the result in data set [23] was Active.

Consider H-FWGKLAKWALKAIPA-OH, for which, in [1], the EC50 at 24 h came to 60 µM. Besides, the EC50 in data set [2] turned out to be 1.03 µM. Moreover, the selectivity ratio in data set [3] came to 58.2.

On to H-FWGRLAKWALKAIPA-OH, for which the EC50 at 24 h in data set [1] turned out to be 9.6 µM. Further, the EC50 in data set [2] was found to be 1.09 µM. Also, the selectivity ratio in data set [3] came to 8.8.

As to H-FWGTLAKWAKKAIPA-OH, the EC50 at 24 h in data set [1] turned out to be 97 µM. Besides, in data set [2], the EC50 came to 1.09 µM.

Consider H-FWGTLAKWALKAIPA-OH, for which, in data set [1], the EC50 at 24 h is greater than 50 µM. In addition, the EC50 in data set [2] was greater than 50 µM. In data set [3], the selectivity ratio was less than 50.

For the compound H-FWGTLAKWALKAIPAAMGMKQNK-OH, the EC50 at 24 h in [1] was found to be 25.7 µM. Besides, the selectivity ratio in data set [3] came to 80.3. Moreover, the EC50 in data set [4] turned out to be 4.7 µM; in data set [5], 3.6 µM; in [6] it was 2.4 µM; in data set [24], 0.32 µM.

Turning to H-FWGTLAKWALRAIPA-OH, the EC50 at 24 h in data set [1] came to 38.5 µM. In data set [2], the concentration for a half-maximal effect (EC50) stood at 1.54 µM. For the same compound, in data set [3], the selectivity ratio was 24.7.

Take H-FWGTLAKWARKAIPA-OH: in [1], the concentration giving a half-maximal response (EC50) at 24 h stood at 25.1 µM. Also, in data set [2], the EC50 came out at 3.31 µM. Further, in [3], the selectivity ratio was 7.5.

H-FWGTLARWALKAIPA-OH: the EC50 at 24 h in data set [1] came to 55 µM. Besides, in data set [2], the EC50 is 5.1 µM. Moreover, the selectivity ratio in data set [3] worked out at 10.8.

For the compound H-FWKTLAKWALKAIPA-OH, the half-maximal effective concentration (EC50) at 24 h in data set [1] is 73.4 µM. Further, the EC50 in [2] came out at 0.86 µM; in [4], 13.5 µM; in data set [5], 16.8 µM; in [6], 19.3 µM; in data set [12] it was 0.91 µM; in [14], 0.28 µM. Also, in data set [3], the selectivity ratio came to 85.3. The selectivity ratio at 24 h in data set [13] stood at 80.7. Further, in data set [15], the EC50 at 48 h was determined as 43.9 µM. Moreover, in data set [16], the selectivity ratio at 48 h is 157. Further, the Activity in data set [25] amounted to 74.1%; in data set [26], 0.01%; in data set [27], 1.04%; in [28] it was 25.06%; in data set [29], 58%. Also, the result in data set [23] was Active.

With H-FWRTLAKWALKAIPA-OH, in [1], the concentration giving a half-maximal response (EC50) at 24 h stood at 13 µM. Also, in [2], the EC50 amounted to 0.69 µM. For the same compound, the selectivity ratio in data set [3] was 18.8.

As for H-GTLAKWALKAIPA-OH, the EC50 at 24 h in data set [1] stood at 189 µM. For the same compound, in data set [2], the EC50 was 8.76 µM. Moreover, in data set [3], the selectivity ratio was 21.6.

The record behind these values is ChEMBL document CHEMBL5108005, “Rational design of a trypanocidal peptide derived from Dinoponera quadriceps venom” (Eur J Med Chem, 2022).
